Measured values: patent publication US5254727A, “Acyclic tricarboxylic acid compounds” (Merck & Co., Inc., priority 1992, dated 1993)

Assays:
[1] = molecular target: T1, squalene synthetase from human HEPG2 cells (Homo sapiens, UniProt P37268); test: Squalene synthetase assay using HepG2 cell enzyme; type: biochemical; conditions: 3 μM 3H-farnesyl pyrophosphate, 30° C., 20 min
T1 construct: The resulting pellet from the 34,000 rpm centrifugation, containing the squalene synthetase, was resuspended in 5 mL of enzyme suspension buffer; endogenous in cells; host or cells: HepG2 cells (ATCC HB 8065), pellet of the 34,000 rpm centrifugation (microsomal)
T1 sequence (P37268 1-417): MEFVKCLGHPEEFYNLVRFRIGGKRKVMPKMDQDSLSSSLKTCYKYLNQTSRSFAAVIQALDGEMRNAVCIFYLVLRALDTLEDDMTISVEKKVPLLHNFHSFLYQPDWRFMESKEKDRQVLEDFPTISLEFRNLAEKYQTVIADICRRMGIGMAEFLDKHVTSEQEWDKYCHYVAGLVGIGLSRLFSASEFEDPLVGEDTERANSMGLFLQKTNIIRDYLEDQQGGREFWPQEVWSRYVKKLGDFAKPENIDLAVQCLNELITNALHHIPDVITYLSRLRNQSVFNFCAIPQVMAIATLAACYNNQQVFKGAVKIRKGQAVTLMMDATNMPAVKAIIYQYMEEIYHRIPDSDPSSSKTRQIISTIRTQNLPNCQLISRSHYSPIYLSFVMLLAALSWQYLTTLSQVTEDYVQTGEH
Method: A. SQUALENE SYNTHETASE ASSAY USING HEPG2 CELL ENZYME
1. Preparation of Human HepG2 Cell Enzyme
Source: HEPG2 CELL LINE (Liver, hepatoblastoma, Human) ATCC No. HB 8065
Cell Growth and Maintenance: Culture Medium: Minimum essential medium (MEM) with non-essential amino acids, sodium pyruvate, and 10% fetal bovine serum. The medium was changed twice weekly. A confluent monolayer was acheived in 1 week. The growth medium was prepared as listed below.
Subculture Procedure: The medium was removed and washed with PBS (Phosphate-Buffered Saline 15.6 mM, pH 7.0). Fresh trypsin (0.25%)-EDTA (0.02%) with Hank's Balanced Salt solution was added and the flask was allowed to stand for a minute before the trypsin solution was removed. The flask was incubated at 37° C. until cells detached. Fresh medium was added and the cells were dispersed and dispensed into new flasks. Subcultivation ratio: 1:6.
Preparation of Delipidated Serum: Fetal calf serum (100 ml) and CAB-O-Sil (2 grams) were stirred overnight at 4° C. and centrifuged at 16,000 rpm for 5 hrs. […]
Harvest: The medium was removed and the cells were washed with PBS. […] Cells were counted (2.5×10^9 yield from 18 flasks (75 cm^2)), and resuspended in 10 mL of 50 mM HEPES (N-[2-Hydroxyethyl]piperazine-N'-[2-ethane-sulfonic acid]) containing 5 mM MgCl2, 2 mM MnCl2, 10 mM DTT (dithiothreitol), pH 7.5 (enzyme suspension buffer). […]

[2] = molecular target: T2, squalene synthetase, rat liver microsomes (Rattus norvegicus, UniProt Q02769); test: Squalene synthetase assay using rat liver enzyme; type: biochemical; conditions: rat liver microsomal enzyme, [4-14C]farnesyl pyrophosphate, 30° C., 20 min
T2 construct: from tissue; host or cells: liver microsomes of male Charles River CD rats fed 0.1% lovastatin
T2 sequence (Q02769 1-416): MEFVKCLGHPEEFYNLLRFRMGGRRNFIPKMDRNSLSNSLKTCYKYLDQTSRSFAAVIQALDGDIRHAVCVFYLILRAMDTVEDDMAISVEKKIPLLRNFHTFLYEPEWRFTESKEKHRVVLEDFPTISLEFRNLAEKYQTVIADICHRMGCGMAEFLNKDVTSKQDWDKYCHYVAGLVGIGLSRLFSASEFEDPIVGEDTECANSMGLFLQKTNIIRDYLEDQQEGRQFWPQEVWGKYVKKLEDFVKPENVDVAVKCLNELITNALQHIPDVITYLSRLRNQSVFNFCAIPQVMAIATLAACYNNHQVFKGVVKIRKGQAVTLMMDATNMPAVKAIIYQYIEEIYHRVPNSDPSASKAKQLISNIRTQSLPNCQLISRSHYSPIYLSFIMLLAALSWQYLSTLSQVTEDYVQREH
Method: B. SQUALENE SYNTHETASE ASSAY USING RAT LIVER ENZYME
Preparation of Rat Liver Microsomes: Male, Charles River CD rats (120 to 150 g) were fed a diet containing 0.1% lovastatin for 4 days. The livers from these rats were homogenized in 5 volumes (ml/g) of ice cold 50 mM HEPES (4-(2-hydroxyethyl)-1-piperazine-ethanesulfonic acid), 5 mM EDTA(ethylenediaminetetra-acetic acid) pH 7.5 with a Potter-Elvehjem type tissue grinder. The homogenate was centrifuged twice at 20,000×g for 15 minutes at 4° C., discarding the pellet each time. The supernatant was then centrifuged at 100,000×g for 1 hour at 4° C. The resulting microsomal pellet was resuspended in a volume of the above homogenizing buffer equal to one-fifth the volume of the original homogenate. This microsomal preparation has a protein concentration of about 7 mg/ml. The microsomal suspensions were stored in aliquots at -70° C. Squalene synthetase activity in these aliquots is stable for at least several months.
Partial Purification of Prenyl Transferase: Prenyl transferase was purified to use in the enzymatic synthesis of radiolabelled farnesyl pyrophosphate [FPP]. Prenyl transferase was assayed by the method of Rilling (Methods in Enzymology 110, 125-129 (1985)) and a unit of activity is defined as the amount of enzyme that will produce 1 μmole of farnesyl pyrophosphate per minute at 30° C. in the standard assay. […]

- IC50 [1]: ~145 nM
- IC50 [2]: 767 nM
Compound: CC(C/C=C/c1ccccc1)CC(C)CCCCCC(C(=O)O)C(O)(CC(=O)O)C(=O)O (centres unmarked) [Compound IA]
